# Reference: ChEMBL document CHEMBL5465560, “Selectivity Literature for EUbOPEN Chemogenomic Library” (2024)
# Assays:
# [1] = biological target: RAC-beta serine/threonine-protein kinase (Homo sapiens) (UniProt P31751); assay: Selectivity interaction (KinomeScan (DiscoverX)) EUB0000595a AKT2; details: at 10 µM
# [2] = biological target: T1, Protein arginine N-methyltransferase 7 (Homo sapiens) (UniProt Q9NVM4); details: at 10 µM
# T1 sequence (whole entry): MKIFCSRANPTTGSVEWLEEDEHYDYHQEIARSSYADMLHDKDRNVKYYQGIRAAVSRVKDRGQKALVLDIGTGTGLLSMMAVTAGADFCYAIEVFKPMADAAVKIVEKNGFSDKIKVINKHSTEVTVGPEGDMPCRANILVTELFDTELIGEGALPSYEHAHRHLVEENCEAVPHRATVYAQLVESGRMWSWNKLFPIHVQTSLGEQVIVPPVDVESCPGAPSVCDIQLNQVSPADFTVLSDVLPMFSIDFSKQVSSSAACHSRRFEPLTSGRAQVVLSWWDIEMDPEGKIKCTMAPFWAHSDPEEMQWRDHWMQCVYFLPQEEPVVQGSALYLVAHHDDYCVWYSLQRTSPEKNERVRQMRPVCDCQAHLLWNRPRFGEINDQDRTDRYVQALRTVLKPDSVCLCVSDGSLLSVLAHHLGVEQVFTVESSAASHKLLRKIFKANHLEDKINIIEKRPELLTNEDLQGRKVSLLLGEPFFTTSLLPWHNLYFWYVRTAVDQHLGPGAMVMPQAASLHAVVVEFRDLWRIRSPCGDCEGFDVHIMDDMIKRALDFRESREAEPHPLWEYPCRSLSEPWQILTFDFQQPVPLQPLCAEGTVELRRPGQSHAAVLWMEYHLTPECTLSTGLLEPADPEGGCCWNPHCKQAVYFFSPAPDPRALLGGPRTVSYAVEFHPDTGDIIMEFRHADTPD
# [3] = biological target: Receptor-interacting serine/threonine-protein kinase 2 (Homo sapiens, UniProt O43353); assay: Selectivity interaction (KinomeScan (DiscoverX)) EUB0001619a RIPK2; details: at 1 µM
# Sequence of Receptor-interacting serine/threonine-protein kinase 2 (O43353 whole entry): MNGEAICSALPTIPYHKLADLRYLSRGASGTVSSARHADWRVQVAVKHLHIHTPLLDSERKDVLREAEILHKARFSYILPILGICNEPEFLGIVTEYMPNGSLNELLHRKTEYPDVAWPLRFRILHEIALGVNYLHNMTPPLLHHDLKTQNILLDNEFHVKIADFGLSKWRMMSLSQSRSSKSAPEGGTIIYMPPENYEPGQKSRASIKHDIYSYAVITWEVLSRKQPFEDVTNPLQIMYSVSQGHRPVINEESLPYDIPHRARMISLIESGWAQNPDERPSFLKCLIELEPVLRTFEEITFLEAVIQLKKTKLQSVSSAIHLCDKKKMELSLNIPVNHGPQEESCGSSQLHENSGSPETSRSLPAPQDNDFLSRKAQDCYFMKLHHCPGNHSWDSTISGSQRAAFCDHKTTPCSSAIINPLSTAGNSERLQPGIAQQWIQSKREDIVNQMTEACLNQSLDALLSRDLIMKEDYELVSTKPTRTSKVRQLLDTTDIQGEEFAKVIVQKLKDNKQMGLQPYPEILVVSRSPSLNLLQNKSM
# [4] = biological target: Fibroblast growth factor receptor 1 (Homo sapiens, UniProt P11362); assay: Selectivity interaction (KinomeScan (DiscoverX)) EUB0001619a FGFR1; details: at 1 µM
# Sequence of Fibroblast growth factor receptor 1 (P11362 22-822 limits assumed): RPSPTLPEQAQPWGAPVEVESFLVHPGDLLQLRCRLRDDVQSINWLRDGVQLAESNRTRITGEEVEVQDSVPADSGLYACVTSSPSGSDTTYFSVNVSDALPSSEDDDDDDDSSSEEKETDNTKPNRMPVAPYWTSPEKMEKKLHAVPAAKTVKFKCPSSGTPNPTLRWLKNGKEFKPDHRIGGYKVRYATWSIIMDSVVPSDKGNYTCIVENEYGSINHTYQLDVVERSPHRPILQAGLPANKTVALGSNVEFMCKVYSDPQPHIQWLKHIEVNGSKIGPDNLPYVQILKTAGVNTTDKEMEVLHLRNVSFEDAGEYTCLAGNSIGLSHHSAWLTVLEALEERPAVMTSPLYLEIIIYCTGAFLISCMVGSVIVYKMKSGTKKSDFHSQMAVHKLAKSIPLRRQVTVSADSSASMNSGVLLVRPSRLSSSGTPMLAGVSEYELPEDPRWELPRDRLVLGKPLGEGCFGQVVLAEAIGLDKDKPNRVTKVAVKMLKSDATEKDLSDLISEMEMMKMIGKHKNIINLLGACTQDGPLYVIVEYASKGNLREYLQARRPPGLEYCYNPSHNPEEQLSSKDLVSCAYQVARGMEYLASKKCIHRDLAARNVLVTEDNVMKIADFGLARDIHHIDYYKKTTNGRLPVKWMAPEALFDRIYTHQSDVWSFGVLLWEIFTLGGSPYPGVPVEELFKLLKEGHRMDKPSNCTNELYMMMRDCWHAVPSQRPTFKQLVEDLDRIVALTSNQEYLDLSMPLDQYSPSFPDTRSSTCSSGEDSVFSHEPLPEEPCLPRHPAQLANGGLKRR
# [5] = biological target: Cyclin-dependent kinase 9 (Homo sapiens, UniProt P50750); assay: Selectivity interaction (KinomeScan (DiscoverX)) EUB0001619a CDK9; details: at 1 µM
# Sequence of Cyclin-dependent kinase 9 (P50750 whole entry): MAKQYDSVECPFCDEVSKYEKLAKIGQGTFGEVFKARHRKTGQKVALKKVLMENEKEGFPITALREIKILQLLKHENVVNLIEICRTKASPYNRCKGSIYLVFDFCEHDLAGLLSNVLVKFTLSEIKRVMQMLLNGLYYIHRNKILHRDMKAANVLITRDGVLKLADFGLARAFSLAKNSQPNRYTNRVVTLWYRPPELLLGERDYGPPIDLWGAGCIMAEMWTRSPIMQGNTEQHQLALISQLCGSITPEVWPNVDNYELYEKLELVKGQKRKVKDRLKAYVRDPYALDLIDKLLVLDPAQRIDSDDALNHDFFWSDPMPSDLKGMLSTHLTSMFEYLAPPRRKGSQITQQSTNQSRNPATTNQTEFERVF
# [6] = biological target: Serine/threonine-protein kinase pim-2 (Homo sapiens, UniProt Q9P1W9); assay: Selectivity interaction (SelectScreen profiling (Invitrogen)) EUB0000607a PIM2; details: at 2 µM
# Sequence of Serine/threonine-protein kinase pim-2 (Q9P1W9 whole entry, looked up): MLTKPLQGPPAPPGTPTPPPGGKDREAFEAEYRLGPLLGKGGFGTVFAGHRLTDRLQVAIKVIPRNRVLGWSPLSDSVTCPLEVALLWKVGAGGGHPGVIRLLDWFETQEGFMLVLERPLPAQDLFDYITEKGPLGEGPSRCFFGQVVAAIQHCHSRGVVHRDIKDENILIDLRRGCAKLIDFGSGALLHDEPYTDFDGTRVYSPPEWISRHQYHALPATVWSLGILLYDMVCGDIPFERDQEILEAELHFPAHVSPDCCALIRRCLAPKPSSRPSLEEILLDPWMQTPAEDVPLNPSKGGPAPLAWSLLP
# [7] = biological target: T2, Dual specificity protein kinase TTK (Homo sapiens) (UniProt P33981); assay: Selectivity interaction (KinomeScan (DiscoverX)) EUB0000655a TTK; details: at 10 µM
# T2 sequence (whole entry): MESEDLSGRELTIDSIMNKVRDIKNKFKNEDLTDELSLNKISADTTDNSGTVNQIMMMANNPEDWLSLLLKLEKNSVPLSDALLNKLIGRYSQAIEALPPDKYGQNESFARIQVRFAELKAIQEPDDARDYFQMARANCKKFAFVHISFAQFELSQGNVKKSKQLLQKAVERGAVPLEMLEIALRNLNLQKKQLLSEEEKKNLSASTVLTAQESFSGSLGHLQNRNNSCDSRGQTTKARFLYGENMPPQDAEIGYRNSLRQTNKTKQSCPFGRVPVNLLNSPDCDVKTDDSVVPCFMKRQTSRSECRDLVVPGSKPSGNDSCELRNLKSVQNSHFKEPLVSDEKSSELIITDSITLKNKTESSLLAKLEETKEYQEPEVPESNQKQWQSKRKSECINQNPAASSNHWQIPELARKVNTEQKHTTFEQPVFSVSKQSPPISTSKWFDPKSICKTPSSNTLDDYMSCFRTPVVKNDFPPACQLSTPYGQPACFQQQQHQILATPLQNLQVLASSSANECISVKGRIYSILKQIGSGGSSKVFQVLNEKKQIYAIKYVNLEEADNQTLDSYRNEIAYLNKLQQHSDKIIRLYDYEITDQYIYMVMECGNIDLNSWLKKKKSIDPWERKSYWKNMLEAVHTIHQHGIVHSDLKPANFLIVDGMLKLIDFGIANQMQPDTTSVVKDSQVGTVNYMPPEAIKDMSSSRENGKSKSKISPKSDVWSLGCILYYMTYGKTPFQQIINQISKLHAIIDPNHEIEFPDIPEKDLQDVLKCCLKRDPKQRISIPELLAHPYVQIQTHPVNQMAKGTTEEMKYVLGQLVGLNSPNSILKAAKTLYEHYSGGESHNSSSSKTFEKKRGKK
# [8] = biological target: Serine/threonine-protein kinase N2 (Homo sapiens, UniProt Q16513); assay: Selectivity interaction (KinomeScan (DiscoverX)) EUB0000092b PKN2; details: at 10 µM
# Sequence of Serine/threonine-protein kinase N2 (Q16513 whole entry, looked up): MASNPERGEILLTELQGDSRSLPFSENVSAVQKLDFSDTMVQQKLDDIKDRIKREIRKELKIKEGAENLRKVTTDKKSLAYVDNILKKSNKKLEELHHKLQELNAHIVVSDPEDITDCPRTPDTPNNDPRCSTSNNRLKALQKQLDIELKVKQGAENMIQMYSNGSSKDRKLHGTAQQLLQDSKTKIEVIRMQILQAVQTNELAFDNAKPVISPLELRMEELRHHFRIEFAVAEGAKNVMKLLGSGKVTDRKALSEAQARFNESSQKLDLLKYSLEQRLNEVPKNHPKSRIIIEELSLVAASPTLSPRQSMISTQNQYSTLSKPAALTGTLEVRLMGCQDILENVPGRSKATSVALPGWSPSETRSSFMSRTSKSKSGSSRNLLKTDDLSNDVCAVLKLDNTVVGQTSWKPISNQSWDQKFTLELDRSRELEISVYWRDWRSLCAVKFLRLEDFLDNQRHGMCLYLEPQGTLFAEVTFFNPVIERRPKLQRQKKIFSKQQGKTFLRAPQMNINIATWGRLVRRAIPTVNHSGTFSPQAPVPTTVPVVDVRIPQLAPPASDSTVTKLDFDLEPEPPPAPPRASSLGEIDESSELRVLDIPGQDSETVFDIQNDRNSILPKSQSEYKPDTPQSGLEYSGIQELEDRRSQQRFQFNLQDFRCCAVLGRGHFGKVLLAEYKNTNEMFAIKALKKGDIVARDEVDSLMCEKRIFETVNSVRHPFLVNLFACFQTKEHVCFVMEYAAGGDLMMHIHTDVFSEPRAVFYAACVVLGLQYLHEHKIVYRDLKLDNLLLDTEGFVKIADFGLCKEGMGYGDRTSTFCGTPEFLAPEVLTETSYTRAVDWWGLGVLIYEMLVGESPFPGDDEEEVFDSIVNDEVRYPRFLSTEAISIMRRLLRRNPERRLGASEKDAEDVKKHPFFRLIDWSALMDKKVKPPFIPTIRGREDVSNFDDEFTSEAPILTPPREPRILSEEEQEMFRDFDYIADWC
# [9] = biological target: T3, Tyrosine-protein kinase Tec (Homo sapiens) (UniProt P42680); assay: Selectivity interaction (KinomeScan (DiscoverX)) EUB0000092b TEC; details: at 10 µM
# T3 sequence (whole entry): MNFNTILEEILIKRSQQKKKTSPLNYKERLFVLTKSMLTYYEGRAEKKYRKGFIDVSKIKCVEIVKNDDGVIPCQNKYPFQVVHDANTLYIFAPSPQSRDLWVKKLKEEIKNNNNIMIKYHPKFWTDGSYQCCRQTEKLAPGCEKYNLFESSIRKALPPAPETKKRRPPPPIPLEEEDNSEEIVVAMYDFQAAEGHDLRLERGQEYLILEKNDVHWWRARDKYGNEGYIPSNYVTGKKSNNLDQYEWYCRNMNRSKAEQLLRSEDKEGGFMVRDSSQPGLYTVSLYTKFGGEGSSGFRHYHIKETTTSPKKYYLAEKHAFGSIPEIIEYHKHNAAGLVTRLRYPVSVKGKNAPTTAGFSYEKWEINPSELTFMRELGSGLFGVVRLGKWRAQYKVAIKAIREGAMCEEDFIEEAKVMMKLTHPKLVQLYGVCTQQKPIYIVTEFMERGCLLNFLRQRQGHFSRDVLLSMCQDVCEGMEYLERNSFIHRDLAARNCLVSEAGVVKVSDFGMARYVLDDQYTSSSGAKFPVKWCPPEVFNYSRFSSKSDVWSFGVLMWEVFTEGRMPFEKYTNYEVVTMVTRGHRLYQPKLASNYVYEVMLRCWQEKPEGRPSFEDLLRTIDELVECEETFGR
# Sequence of RAC-beta serine/threonine-protein kinase (Homo sapiens) (P31751 whole entry): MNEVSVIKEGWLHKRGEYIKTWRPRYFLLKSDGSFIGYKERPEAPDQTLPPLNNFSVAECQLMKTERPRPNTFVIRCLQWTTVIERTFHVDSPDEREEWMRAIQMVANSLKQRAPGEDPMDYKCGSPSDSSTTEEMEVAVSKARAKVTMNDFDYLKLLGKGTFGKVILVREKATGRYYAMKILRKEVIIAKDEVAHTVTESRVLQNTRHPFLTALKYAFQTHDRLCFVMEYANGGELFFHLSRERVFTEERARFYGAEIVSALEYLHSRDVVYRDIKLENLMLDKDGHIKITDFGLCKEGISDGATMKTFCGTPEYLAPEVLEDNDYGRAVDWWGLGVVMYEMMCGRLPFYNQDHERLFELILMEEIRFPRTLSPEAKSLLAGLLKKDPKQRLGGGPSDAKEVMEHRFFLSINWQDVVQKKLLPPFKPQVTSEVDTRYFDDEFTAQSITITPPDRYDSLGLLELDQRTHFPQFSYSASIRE
smiles,measurement,setting,value
COCC(=O)NC/C=C/c1ccc2ncnc(Nc3ccc(Oc4ccc(C)nc4)c(C)c3)c2c1 [CP-724714],% of control,[1],100%
CNCCN1CCC(c2cc(CN(C)C(=O)c3cccc(Oc4ccccc4)c3)ccn2)CC1,% activity,[2],> 90%
N#Cc1cccc(-c2c[nH]c3ncnc(N4CCOCC4)c23)c1,% of control,[3],84%
same,% of control,[4],100%
same,% of control,[5],97%
CNC(=O)Nc1ccc(-c2nc(N3CC4CCC(C3)O4)c3cnn(C4CCC5(CC4)OCCO5)c3n2)cc1,% of inhibition,[6],3%
CN(C)CCOc1ccc(-c2nc(-c3ccncc3)c(-c3ccc4c(c3)CC/C4=N\O)[nH]2)cc1,% of control,[7],94%
CCC(=O)N1CCN(c2ccc(-n3c(=O)ccc4cnc5ccc(-c6cnc7ccccc7c6)cc5c43)cc2C(F)(F)F)CC1,% of control,[8],65%
same,% of control,[9],99%
